According to patent US9102674B2, “Substituted naphthyridine and quinoline compounds as MAO inhibitors” (DART NEUROSCIENCE (CAYMAN) LTD., priority 2013, dated 2015):

target: T1, Human recombinant MAO-B (Homo sapiens, UniProt P27338); experiment: MAO-B enzymatic assay (fluorometric, kynuramine); format: biochemical; conditions: human recombinant MAO-B expressed in insect cells; kynuramine substrate; values given as bins; read-out: MAO-B (pEC50) (converted)
T1 construct: host or cells: insect cells
T1 sequence (P27338 1-520): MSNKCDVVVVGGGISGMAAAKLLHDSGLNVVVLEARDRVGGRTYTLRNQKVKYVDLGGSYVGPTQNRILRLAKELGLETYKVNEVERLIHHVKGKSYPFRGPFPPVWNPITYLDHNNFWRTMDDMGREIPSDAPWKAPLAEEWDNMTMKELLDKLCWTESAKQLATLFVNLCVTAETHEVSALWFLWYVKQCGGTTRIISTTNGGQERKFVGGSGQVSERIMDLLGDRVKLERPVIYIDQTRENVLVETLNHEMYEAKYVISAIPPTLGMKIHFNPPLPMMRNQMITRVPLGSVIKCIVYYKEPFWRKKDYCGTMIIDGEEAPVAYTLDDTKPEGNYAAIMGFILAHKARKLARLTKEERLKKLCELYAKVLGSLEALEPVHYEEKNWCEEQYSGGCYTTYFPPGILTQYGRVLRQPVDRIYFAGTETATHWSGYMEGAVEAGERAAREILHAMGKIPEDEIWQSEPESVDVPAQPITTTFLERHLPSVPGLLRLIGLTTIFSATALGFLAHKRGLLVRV
Description: The MAO enzymatic assay was performed according to the fluorometric method described by Matsumoto and colleagues (Matsumoto et al., Clin. Biochem. 1985, 18, 126-129) with the following modifications. Human recombinant MAO-A and MAO-B expressed in insect cells were used. For both assays, test compound and/or vehicle were preincubated with purified enzyme in phosphate buffer pH 7.4 for 15 minutes at 37° C. The reaction was initiated by addition of […] kynuramine. Following a 60 minute incubation period, the reaction was terminated by the addition of 6 N NaOH. The amount of 4-hydroxyquinoline that formed was determined by spectrofluorimetrically at 325 nm/465 nm.
Results were converted to percent inhibition, and the EC50 (M) for each reaction was determined using the XLfit program from IDBS (ID Business Solutions Ltd., 2 Occam Court, Surrey Research Park, Guildford, Surrey, GU2 7QB UK). The EC50 represents the concentration of a compound where 50% of its maximal effect is observed. The pEC50 is defined as the negative logarithm of the EC50; a higher pEC50 value therefore corresponds to higher potency in the assay.
Representative compounds of the invention were evaluated in the MAO-B enzymatic assay. Typically, the compounds of the invention show MAO-B inhibitory properties at a concentration of 0.1 to 10 μM, typically at 5-100%.
As depicted in the following Table, these inhibitory properties were mirrored by pEC50 values ranging from 5 (meaning 10^−5 M or 10 μM) to greater than 7 (meaning less than 10^−7 M or 0.1 μM).

Row | EC50 | SMILES
1 | < 100 nM | CCOC(=O)c1cc2ccc(OCc3ccc(F)cc3)cc2nc1C [Example 22, Ethyl 7-((4-fluorobenzyl)oxy)-2-methylquinoline-3-carboxylate]
2 | < 100 nM | CCOC(=O)c1cc2ccc(OCc3ccc(F)c(Cl)c3)cc2nc1C [Example 23, Ethyl 7-((3-chloro-4-fluorobenzyl)oxy)-2-methylquinoline-3-carboxylate]
3 | < 100 nM | CCOC(=O)c1cnc2cc(OCCc3cccc(F)c3)ccc2c1 [Example 24, Ethyl 7-(3-fluorophenethoxy)quinoline-3-carboxylate]
4 | 100 to 1000 nM | CCOC(=O)c1cnc2cc(OCCc3cccc(Cl)c3)ccc2c1 [Example 25, Ethyl 7-(3-chlorophenethoxy)quinoline-3-carboxylate]
5 | < 100 nM | COC(=O)c1cnc2cc(OCc3cccc(Cl)c3)ccc2c1 [Example 26, Methyl 7-((3-chlorobenzyl)oxy)quinoline-3-carboxylate]
6 | < 100 nM | CC(C)(O)c1cnc2cc(OCc3ccc(F)cc3)ccc2c1 [Example 27, 2-(7-((4-Fluorobenzyl)oxy)quinolin-3-yl)propan-2-ol]
7 | < 100 nM | CC(C)(O)c1cnc2cc(OCc3cccc(Cl)c3)ccc2c1 [Example 28, 2-(7-((3-Chlorobenzyl)oxy)quinolin-3-yl)propan-2-ol]
8 | < 100 nM | CC(C)(O)c1cnc2cc(OCc3cc(F)cc(F)c3)ccc2c1 [Example 29, 2-(7-((3,5-Difluorobenzyl)oxy)quinolin-3-yl)propan-2-ol]
9 | < 100 nM | CC(C)(O)c1cnc2cc(OCc3cc(F)c(F)c(F)c3)ccc2c1 [Example 30, 2-(7-((3,4,5-Trifluorobenzyl)oxy)quinolin-3-yl)propan-2-ol]
10 | < 100 nM | Cc1nc2cc(OCc3ccc(F)cc3)ccc2cc1C(C)(C)O [Example 31, 2-(7-((4-Fluorobenzyl)oxy)-2-methylquinolin-3-yl)propan-2-ol]
11 | < 100 nM | Cc1nc2cc(OCc3cccc(Cl)c3)ccc2cc1C(C)(C)O [Example 32, 2-(7-((3-Chlorobenzyl)oxy)-2-methylquinolin-3-yl)propan-2-ol]
12 | < 100 nM | Cc1nc2cc(OCc3ccc(F)c(Cl)c3)ccc2cc1C(C)(C)O [Example 33, 2-(7-((3-Chloro-4-fluorobenzyl)oxy)-2-methylquinolin-3-yl)propan-2-ol]
13 | < 100 nM | Cc1nc2cc(OCc3cccc(F)c3)ccc2cc1C(C)(C)O [Example 34, 2-(7-((3-Fluorobenzyl)oxy)-2-methylquinolin-3-yl)propan-2-ol]
14 | < 100 nM | OCc1cnc2cc(OCc3cccc(Cl)c3)ccc2c1 [Example 35, (7-((3-Chlorobenzyl)oxy)quinolin-3-yl)methanol]
15 | < 100 nM | OCc1cnc2cc(OCc3cc(F)cc(F)c3)ccc2c1 [Example 36, (7-((3,5-Difluorobenzyl)oxy)quinolin-3-yl)methanol]
16 | < 100 nM | OCc1cnc2cc(OCc3cc(F)c(F)c(F)c3)ccc2c1 [Example 37, (7-((3,4,5-Trifluorobenzyl)oxy)quinolin-3-yl)methanol]
17 | 100 to 1000 nM | CC(C)(O)c1cnc2cc(OCCc3cccc(F)c3)ccc2c1 [Example 38, 2-(7-(3-Fluorophenethoxy)quinolin-3-yl)propan-2-ol]
18 | 100 to 1000 nM | CC(C)(O)c1cnc2cc(OCCc3cccc(Cl)c3)ccc2c1 [Example 39, 2-(7-(3-Chlorophenethoxy)quinolin-3-yl)propan-2-ol]
19 | < 100 nM | COCc1cnc2cc(OCc3cccc(Cl)c3)ccc2c1 [Example 40, 7-((3-Chlorobenzyl)oxy)-3-(methoxymethyl)quinoline]
20 | < 100 nM | CC(C)(F)c1cnc2cc(OCc3ccc(F)cc3)ccc2c1 [Example 41, 7-((4-Fluorobenzyl)oxy)-3-(2-fluoropropan-2-yl)quinoline]
21 | < 100 nM | CC(=O)c1cnc2cc(OCc3ccc(F)cc3)ccc2c1 [Example 42, 1-(7-((4-Fluorobenzyl)oxy)quinolin-3-yl)ethanone]
22 | < 100 nM | CC(O)c1cnc2cc(OCc3ccc(F)cc3)ccc2c1 (centres unmarked) [Example 43, 1-(7-((4-Fluorobenzyl)oxy)quinolin-3-yl)ethanol]

Row | EC50 | SMILES
23 | < 100 nM | C[C@@H](O)c1cnc2cc(OCc3ccc(F)cc3)ccc2c1 [Example 44, (R)-1-(7-((4-Fluorobenzyl)oxy)quinolin-3-yl)ethanol]
24 | < 100 nM | C[C@H](O)c1cnc2cc(OCc3ccc(F)cc3)ccc2c1 [Example 45, (S)-1-(7-((4-Fluorobenzyl)oxy)quinolin-3-yl)ethanol]
25 | < 100 nM | CNC(=O)c1cnc2cc(OCc3cccc(Cl)c3)ccc2c1 [Example 46, 7-((3-Chlorobenzyl)oxy)-N-methylquinoline-3-carboxamide]
26 | < 100 nM | NCCNC(=O)c1cnc2cc(OCc3cccc(Cl)c3)ccc2c1 [Example 47, N-(2-Aminoethyl)-7-((3-chlorobenzyl)oxy)quinoline-3-carboxamide]
27 | 100 to 1000 nM | CNCCNC(=O)c1cnc2cc(OCc3cccc(Cl)c3)ccc2c1 [Example 48, 7-((3-Chlorobenzyl)oxy)-N-(2-(methylamino)ethyl)quinoline-3-carboxamide]
28 | 1000 to 10000 nM | CN(C)CCNC(=O)c1cnc2cc(OCc3cccc(Cl)c3)ccc2c1 [Example 49, 7-((3-Chlorobenzyl)oxy)-N-(2-(dimethylamino)ethyl)quinoline-3-carboxamide]
29 | < 100 nM | NCc1cnc2cc(OCc3cccc(Cl)c3)ccc2c1 [Example 50, (7-((3-Chlorobenzyl)oxy)quinolin-3-yl)methanamine]
30 | 1000 to 10000 nM | CCOC(=O)Cc1cnc2cc(OCc3cccc(F)c3)ccc2c1 [Example 52, Ethyl 2-(7-((3-fluorobenzyl)oxy)quinolin-3-yl)acetate]
31 | 100 to 1000 nM | CCOC(=O)Cc1cnc2cc(OCc3ccc(F)cc3)ccc2c1 [Example 53, Ethyl 2-(7-((4-fluorobenzyl)oxy)quinolin-3-yl)acetate]
32 | < 100 nM | COC(=O)Cc1cnc2cc(OCc3cccc(Cl)c3)ccc2c1 [Example 54, Methyl 2-(7-((3-chlorobenzyl)oxy)quinolin-3-yl)acetate]
33 | < 100 nM | NC(=O)Cc1cnc2cc(OCc3cccc(Cl)c3)ccc2c1 [Example 55, 2-(7-((3-Chlorobenzyl)oxy)quinolin-3-yl)acetamide]
34 | < 100 nM | OCCc1cnc2cc(OCc3cccc(Cl)c3)ccc2c1 [Example 56, 2-(7-((3-Chlorobenzyl)oxy)quinolin-3-yl)ethanol]
35 | < 100 nM | NC(=O)Cc1cnc2cc(OCc3cccc(F)c3)ccc2c1 [Example 57, 2-(7-((3-Fluorobenzyl)oxy)quinolin-3-yl)acetamide]
36 | < 100 nM | NC(=O)Cc1cnc2cc(OCc3ccc(F)cc3)ccc2c1 [Example 58, 2-(7-((4-fluorobenzyl)oxy)quinolin-3-yl)acetamide]
37 | 100 to 1000 nM | CCOC(=O)C(C)(C)c1cnc2cc(OCc3cccc(Cl)c3)ccc2c1 [Example 59, Ethyl 2-(7-((3-chlorobenzyl)oxy)quinolin-3-yl)-2-methylpropanoate]
38 | < 100 nM | CC(C)(CO)c1cnc2cc(OCc3cccc(Cl)c3)ccc2c1 [Example 60, 2-(7-((3-Chlorobenzyl)oxy)quinolin-3-yl)-2-methylpropan-1-ol]
39 | < 100 nM | CC(C)(C(N)=O)c1cnc2cc(OCc3cccc(Cl)c3)ccc2c1 [Example 61, 2-(7-((3-Chlorobenzyl)oxy)quinolin-3-yl)-2-methylpropanamide]
40 | < 100 nM | NC(=O)Cc1cnc2cc(OCc3ccnc(C(F)(F)F)c3)ccc2c1 [Example 62, 2-(7-((2-(Trifluoromethyl)pyridin-4-yl)methoxy)quinolin-3-yl)acetamide]
41 | 1000 to 10000 nM | CC(C)(O)Cc1cnc2cc(OCc3cccc(Cl)c3)ccc2c1 [Example 63, 1-(7-((3-Chlorobenzyl)oxy)quinolin-3-yl)-2-methylpropan-2-ol]
42 | < 100 nM | NC(=O)c1cnc2cc(OCc3cccc(Cl)c3)ccc2c1 [Example 64, 7-((3-Chlorobenzyl)oxy)quinoline-3-carboxamide]
43 | < 100 nM | CC(C)(O)c1cnc2cc(OCc3ccc(F)cc3)cnc2c1 [Example 65, 2-{7-[(4-Fluorophenyl)methoxy]-1,5-naphthyridin-3-yl}propan-2-ol]
44 | 100 to 1000 nM | CC(C)(O)c1cc2ccc(OCc3ccc(F)cc3)cc2[n+]([O-])c1 [Example 66, 7-[(4-Fluorophenyl)methoxy]-3-(2-hydroxypropan-2-yl)quinolin-1-ium-1-olate]
